# According to the supplement of paper PMC9938120:
# Legend:
# Assay in all cases: drug sensitivity score (DSS3, normalised partial AUC of % inhibition dose-response) (DSS (score)); higher = more sensitive (stronger inhibition of viability); extreme values may be limits of the assay
# FMOC06 = patient-derived mucinous ovarian cancer cells; details: 72 h; library: FO5A; assay format: 2D, 384-well, CellTiter-Glo
# Method in brief: (§1)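 The drug sensitivity score is calculated as a partial area under the percent-inhibition dose-response curve, divided by the log of the upper asymptote; higher scores mean more sensitive. For this score, early-passage (under 10) patient-derived ovarian cancer cells were exposed on 384-well flat clear-bottom plates to compounds at five concentrations across a 10,000-fold range for 72 h at 37 °C, 5% CO2. Viability was read with CellTiter-Glo and processed in Breeze.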
# FMOC17 = patient-derived low-grade serous ovarian cancer cells; details: 72 h; library: FO5A; assay format: 2D, 384-well, CellTiter-Glo
# Method in brief: as §1
# FMOC22 = patient-derived mucinous ovarian cancer cells; details: 72 h; library: FO5A; assay format: 2D, 384-well, CellTiter-Glo
# Method in brief: as §1
# FMOC25_1 = patient-derived low-grade serous ovarian cancer cells; details: 72 h; library: FO4B; assay format: 2D, 384-well, CellTiter-Glo
# Method in brief: as §1
# FMOC03 = patient-derived mucinous ovarian cancer cells; details: 72 h; library: FO5A; assay format: 2D, 384-well, CellTiter-Glo
# Method in brief: as §1
# FMOC02_1 = patient-derived low-grade serous ovarian cancer cells; details: 72 h; library: FO5A; assay format: 2D, 384-well, CellTiter-Glo
# Method in brief: as §1
# FMOC04 = patient-derived high-grade serous ovarian cancer cells; details: 72 h; library: FO5A; assay format: 2D, 384-well, CellTiter-Glo
# Method in brief: as §1
# FMOC02_2 = patient-derived low-grade serous ovarian cancer cells; details: 72 h; library: FO5A; assay format: 2D, 384-well, CellTiter-Glo
# Method in brief: as §1
# FMOC27 = patient-derived low-grade serous ovarian cancer cells; details: 72 h; library: FO5A; assay format: 2D, 384-well, CellTiter-Glo
# Method in brief: as §1
# FMOC11 = patient-derived high-grade serous ovarian cancer cells; details: 72 h; library: FO5A; assay format: 2D, 384-well, CellTiter-Glo
# Method in brief: as §1
# FMOC25_2 = patient-derived low-grade serous ovarian cancer cells; details: 72 h; library: FO5A; assay format: 2D, 384-well, CellTiter-Glo
# Method in brief: as §1
# FMOC14 = patient-derived high-grade serous ovarian cancer cells; details: 72 h; library: FO5A; assay format: 2D, 384-well, CellTiter-Glo
# Method in brief: as §1
# FMOC02_3 = patient-derived low-grade serous ovarian cancer cells; details: 72 h; library: FO5A; assay format: 2D, 384-well, CellTiter-Glo
# Method in brief: as §1
# FMOC09 = patient-derived high-grade serous ovarian cancer cells; details: 72 h; library: FO5A; assay format: 2D, 384-well, CellTiter-Glo
# Method in brief: as §1
# FMOC24 = patient-derived high-grade serous ovarian cancer cells; details: 72 h; library: FO5A; assay format: 2D, 384-well, CellTiter-Glo
# Method in brief: as §1
# FMOC28 = patient-derived low-grade serous ovarian cancer cells; details: 72 h; library: FO5A; assay format: 2D, 384-well, CellTiter-Glo
# Method in brief: as §1
Compound,drug sensitivity score (FMOC06),drug sensitivity score (FMOC17),drug sensitivity score (FMOC22),drug sensitivity score (FMOC25_1),drug sensitivity score (FMOC03),drug sensitivity score (FMOC02_1),drug sensitivity score (FMOC04),drug sensitivity score (FMOC02_2),drug sensitivity score (FMOC27),drug sensitivity score (FMOC11),drug sensitivity score (FMOC25_2),drug sensitivity score (FMOC14),drug sensitivity score (FMOC02_3),drug sensitivity score (FMOC09),drug sensitivity score (FMOC24),drug sensitivity score (FMOC28)
Nc1nc(F)nc2c1ncn2[C@@H]1O[C@H](CO)[C@@H](O)[C@@H]1O [Fludarabine],0.9,0,1.3,4.3,0,3,0,0.5,0,0,1.9,0,2,0.8,0,0
O=c1[nH]cc(F)c(=O)[nH]1 [Fluorouracil],0,1,2.2,3.1,0,2.3,2.65,1.8,0,0,4.3,0,3.6,0,0.1,1.2
CC(C)C(=O)Nc1ccc([N+](=O)[O-])c(C(F)(F)F)c1 [Flutamide],0,0,0,0,0,0,0.05,0,0,0,0,0,0,0,2.1,0
COc1cc2c(Oc3ccc(NC(=O)C4(C(=O)Nc5ccc(F)cc5)CC4)cc3F)ccnc2cc1OCCCN1CCOCC1 [Foretinib],3.1,1.7,0.5,0.6,0,2.6,1.1,1.9,2.2,0.8,2.4,0.6,3.2,1.1,1.35,0
COc1cc(Nc2ncc(F)c(Nc3ccc4c(n3)N(COP(=O)(O)O)C(=O)C(C)(C)O4)n2)cc(OC)c1OC [Fostamatinib],2.6,3.4,0.4,8.6,2.3,6.7,0,3.5,1.1,2.6,6.6,0,7.6,1.2,3.6,1.9
C[C@]12CC[C@@H]3c4ccc(O)cc4C[C@@H](CCCCCCCCC[S+]([O-])CCCC(F)(F)C(F)(F)F)[C@H]3[C@@H]1CC[C@@H]2O (stereo partly drawn) [Fulvestrant],0,0,0,0,0,0,0,0,0,0,0,0,0,0,0,0
CNc1nc(Nc2cn(C(C)(C)C#N)nc2C)ncc1C(F)(F)F [GNE-0877],0,0,0,0,0,0,0,0,0,0,0,0,0,0,0,0
CCNc1nc(Nc2cc(F)c(C(=O)N3CCOCC3)cc2OC)ncc1C(F)(F)F [GNE-7915],0,0,0,0,0,0,0,0,0,0,0,0,1,0,0,2
CCCc1cc(C)[nH]c(=O)c1CNC(=O)c1cc(-c2ccnc(N3CCN(C)CC3)c2)cc2c1cnn2C(C)C [GSK343],0,0.3,0,1.6,0,0,0,0,0,0,0.1,0,0,0.1,0.55,2
CCCOc1ccn2c(C(C)=O)cc(-c3ccccc3S(C)(=O)=O)c2c1 [GSK2801],0,0,0,0,0,0,0,0.1,0,0,1.5,0,0,0,0,4.9
C[C@@H]1C=C2C(=O)O[C@@H]3CC[C@H](C1)[C@]23O [Galiellalactone],2.5,5.8,4.2,0,3.9,5.9,5.9,5.9,3.8,4,4.6,5.5,2.3,6.7,1.65,6.7
Cc1cccc(-c2nn3c(c2-c2ccnc4ccc(C(N)=O)cc24)CCC3)n1 [Galunisertib],0,0,0,0,0,0,0,0,0,0,0,0,0,0,0.35,0
CN1CC[C@@H](NC(=O)Nc2ccc(C#N)cc2)C[C@@H]1c1nc2ccccc2[nH]1 [Glasdegib],0,0,0,0.1,0,0,0,0.4,0,0,5.2,0,0,0,2.75,3.7
CN1CCN(C2CCN(C(=O)Nc3cc(Oc4ccc(NC(=O)C5(C(=O)Nc6ccc(F)cc6)CC5)c(F)c4)ccn3)CC2)CC1 [Golvatinib],0,0.2,0,0.9,0.5,1.2,0.7,1.2,0,0,4.3,0,2.2,0,3.35,0
CC(C)C[C@H](NC(=O)[C@@H](COC(C)(C)C)NC(=O)[C@H](Cc1ccc(O)cc1)NC(=O)[C@H](CO)NC(=O)[C@H](Cc1c[nH]c2ccccc12)NC(=O)[C@H](Cc1cnc[nH]1)NC(=O)[C@@H]1CCC(=O)N1)C(=O)N[C@@H](CCCNC(=N)N)C(=O)N1CCC[C@H]1C(=O)NNC(N)=O [Goserelin],0,0,0,0,0,0,0,0,0,0,0,0,0,0,0,0
O=S(=O)(c1cccc2c(O)nccc12)N1CCCNCC1 [Hydroxyfasudil],0,0,0,0,0,0,0,0,0,0,0,0,0,0,1.25,0
NC(=O)NO [Hydroxyurea],1.9,1.1,0.7,0.5,0.7,5.2,0.8,1.3,1.6,2.9,3.9,0,4.8,0.9,1.05,0.9
O=C(O)c1ccc(O)c2ncccc12 [IOX-1],1,0,1.6,0,3,0,0,0.2,0,1.6,0,1.9,0,0,0,0
O=C(O)CNC(=O)c1c(O)c2ccccc2n(Cc2ccccc2)c1=O [IOX-2],0,0,0,0,0,0.5,0,0.5,0,0,0.9,0,0,0,1.75,3.2
CC[C@H](Nc1ncnc2[nH]cnc12)c1nc2cccc(F)c2c(=O)n1-c1ccccc1 [Idelalisib],2.7,2.8,0.1,1.4,0.4,2.3,0.1,2.4,0.4,1.9,1.1,0,3.7,2,0,3.3
Cc1ccc(NC(=O)c2ccc(CN3CCN(C)CC3)cc2)cc1Nc1nccc(-c2cccnc2)n1 [Imatinib],0,0,0,0.3,0.4,0.3,0,1.2,0,0,0.1,2,1.6,0,2.75,0
CC(C)Cn1cnc2c(N)nc3ccccc3c21 [Imiquimod],0.5,0,0,0,0,0,0,0,0,0,0,0,0,0,0,0.9
CCC(C)n1ncn(-c2ccc(N3CCN(c4ccc(OCC5COC(Cn6cncn6)(c6ccc(Cl)cc6Cl)O5)cc4)CC3)cc2)c1=O (stereo not drawn) [Itraconazole],0.7,4.8,0.2,4,4.5,5.3,0.1,3,0.6,1.2,4.6,1.3,6.6,0.8,4.9,4.4
